Experimental findings from patent US4847256A, “4,5-dihydro and 4,5,6,7-tetrahydropyrazolo(1,5-A)-pyrimidines” (American Cyanamid Company, priority 1986, dated 1989) are described below.

In assay [1] the test system is brain-specific receptors (benzodiazepine binding). The assay can be described thus: Inhibition of the binding of 3H-benzodiazepine to brain-specific receptors of rats. Set-up: species or system rat (Wistar). The conditions noted are these: 3H-diazepam (1.5 nM) or 3H-flunitrazepam (1.0 nM), rat cortex P2 fraction, pH 7.4, 30 minutes in ice; 12% or more = active; test concentration not given. The text has this:
Still another test utilized for the determination of anxiolytic activity is the measurement of the ability of a test compound to inhibit the binding of tritiated benzodiazepines to brain-specific receptors of mammals. A modification of the method described by R. F. Squires, et al., Nature, 266, No. 21:732 (April, 1977) and H. Mohler, et al., Science, 198:849 (1977) was employed.
Male albino rats (Wistar strain, weighing 150-200 g each) were used. The test compounds were solubilized in dimethylformamide, acetic acid, ethanol or hydrochloric acid.
Whole cortex of rats was homogenized gently in 20 volumes of ice-cold 0.32 M sucrose, centrifuged twice at 1000 g for 10 minutes and then recentrifuged at 30,000 g for 20 minutes to produce a crude P2 -synaptosomal fraction. The P2 -fraction was either: (1) resuspended in twice the original volume in hypotonic 50 mM Tris.HCl (pH 7.4), or (2) resuspended in one-half the original volume in hypotonic 10 mM Tris.HCl (pH 7.4) and frozen (-20° C.) until time of use. Frozen P2 preparations were thawed and resuspended in four times the original homogenizing volume at time of assay.
The binding assay consisted of 300 μl of the P2 -fraction suspension (0.2-0.4 mg protein), 100 μl of test drug and 100 μl of ^3 H-diazepam (1.5 nM, final concentration) or ^3 H-flunitrazepam (1.0 nM, final concentration) which was added to 1.5 ml of […] Tris.HCl (pH 7.4). Nonspecific binding controls and total binding controls received 100 μl of diazepam (3 μM final concentration) and 100 μl of deionized water, respectively, in place of the test compound. Incubation for 30 minutes proceeded in ice and was terminated by filtration, under vacuum, through glass fiber filters. The filters were washed twice with 5 ml of ice-cold 50 mM Tris.HCl (pH 7.4) and placed in scintillation vials. After drying at 50°-60° C. for 30 minutes, 10 ml of diluent was added and the radioactivity determined in a scintillation counter.
Inhibition of binding was calculated by the difference between total binding and binding in the presence of test compound, divided by the total binding, ×100. Physiological activity can be shown by a test compound that inhibits ^3 H-benzodiazepine binding by 12% or more.

The subject of assay [2] is spontaneously hypertensive rats of the Okamoto strain. The assay can be described thus: Reduction of mean arterial blood pressure in spontaneously hypertensive rats. The assay is classed as in vivo, rat (Okamoto strain. The conditions noted are these: 100 mg/kg or less by gavage, two doses 24 h apart; MABP at 28 hours; number of rats in parentheses in cell; untreated average 160±1.5 mm Hg. How it is done: Certain of the novel compounds of the present invention are active hypotensive agents at nontoxic doses when administered to mammals. These compounds were tested for hypotensive activity by the method of P. S. Chan and D. W. Poorvin, Clinical and Experimental Hypertension, 1 (6), 817-830 (1979). Male, 16 week old, spontaneously hypertensive rats of the Okamoto strain having an average mean arterial blood pressure of 160±1.5 mm of mercury are used in the test. One to three rats are used per test compound. A rat is dosed by gavage with a test compound, suspended in 2% pre-boiled starch at a concentration of 50 mg/ml, at a dose of 100 mg/kg of body weight or less, with 0.9% sodium chloride loading at a dose of 25 ml/kg of body weight. A second identical dose of the test compound, without sodium chloride loading is given 24 hours later. At 28 hours after the initial dose the mean arterial blood pressure is measured by the method of Chan and Poorvin vide supra. The procedure is repeated in a second and third rat when necessary.

Assay [3] deals with Wistar strain male rats (conflict procedure). The assay can be described thus: Non-conditioned passive avoidance (conflict) procedure in rats. The assay is classed as in vivo, rat (Wistar). Particulars: 25 mg/kg, oral, 60 minutes before test. On the procedure:
Another test used to assess antianxiety effects is a non-conditioned passive avoidance procedure described by J. R. Vogel, B. Beer and D. E. Clody, "A Simple and Reliable Conflict Procedure for Testing Antianxiety Agents", Psychopharmacologia, 21:1-7 (1971). A conflict situation is induced in rats by a modification of this method.
Groups of 8 naive, Wistar strain male rats weighing 200-240 g each were deprived of water for 48 hours. The test compounds were administered in single or graded, oral doses, suspended in 2% starch with 5% polyethylene glycol in distilled water and one drop of polysorbate 80. Control animals received the vehicle alone. At 60 minutes each rat was placed in an individual clear plastic chamber. Tap water was available ad libitum from a nipple located in a black box off the main chamber. A 0.7 milliampere AC shocking current was established between the stainless steel grid floor and the tap. After 20 licks of non-shocked drinking, a 2 second shocking current was administered to the rat. This ratio of 20 licks of non-shocked drinking followed by a 2 second shock was continued for a total of 3 minutes. The number of shocks taken by each rat during the 3 minute interval was recorded and compared to a control group. […]

Assay [4] has as its system clonic seizures caused by pentylenetetrazole in rats. Kind of assay: Protection against clonic seizures caused by pentylenetetrazole in rats. The format is in vivo, rat. Particulars: 25 mg/kg, oral or intraperitoneal; pentylenetetrazole 23 mg/kg i.v. at 30 or 60 minutes; active if >=50% protected. On the procedure: The antianxiety properties of the novel compounds of the present invention have been established in a test which indicates anxiolytic activity by the measure of protection from convulsions resulting from the administration of pentylenetetrazole. Single or graded dose levels of the test compounds were administered orally or intraperitoneally in a 2% starch vehicle containing 0.5% v/v polyethylene glycol and one drop of polysorbate 80, or distilled water and one drop of polysorbate 80 to groups of at least 4 rats. At 30 or 60 minutes, the rats were treated intravenously with pentylenetetrazole at a dose of 23 mg/kg of body weight. This dose is estimated to cause clonic seizures in 99% of unprotected rats. The test compounds are considered active if they protect 50% or more of the rats from clonic seizures. It has been reported [R. T. Hill and D. H. Tedeschi, "Animal Testing and Screening Procedures in Evaluating Psychotropic Drugs" in "An Introduction to Psychopharmacology", pp. 237-288 (Eds. R. R. Rech and K. E. Moore, Raven Press, New York, 1971) that there is a high degree of correlation between antagonism of pentylenetetrazole seizures in rats and antianxiety effects in higher warm-blooded animals.

Assay [5] relates to rats (stress induced immobility). The assay can be described thus: Stress Induced Immobility Test. The format is in vivo, rat. Particulars: 25 mg/kg intraperitoneally, 15 minutes at 44.5° C.; control 200 seconds. How it is done:
The compounds of this invention are active as antidepressant agents in warm-blooded animals as evidenced by their results when tested in the Stress Induced Immobility Test. In this test, rats were confined on a warm (44.5° C.), but aversive, surface for 15 minutes. After 5-6 minutes, control rats began to show episodes of behavior where they remained flat and immobile for periods of time. The total duration of this behavior was timed. The average duration of immobility in the control rats was 200 seconds. The test compounds were administered intraperitoneally at 25 mg/kg of body weight. A compound was considered active if the maximum duration time was <100 seconds (less than 50% of the control value) in more than 50% of the rats.

As to `N#Cc1cnn2c1NCC=C2c1ccccc1` [4,5-Dihydro-7-phenylpyrazolo[1,5-a]pyrimidine-3-carbonitrile], in assay [1], the “% Inhibition of 3H-benzodiazepine binding” value (“% Inhibition” for short) is recorded as 20%.
Consider `O=C(c1ccccc1)c1cnn2c1NCCC2c1ccncc1` (stereo not drawn) [Phenyl[4,5,6,7-tetrahydro-7-(4-pyridinyl)pyrazolo[1,5-a]pyrimidin-3-yl]methanone], for which the “MABP/mm Hg (no. of rats)” value in assay [2] was found to be 125 mm Hg. For the same compound, the “% Inhibition” value in assay [1] was found to be 22%.
As to `NC(=O)c1cnn2c1NCCC2` [4,5,6,7-Tetrahydropyrazolo[1,5-a]pyrimidine-3-carboxamide], the “MABP/mm Hg (no. of rats)” value in assay [2] is on record as 137 mm Hg.
On to `O=C(c1ccccc1)c1cnn2c1NCC=C2c1cccc(C(F)(F)F)c1` [[4,5-Dihydro-7-[3-(trifluoromethyl)phenyl]pyrazolo[1,5-a]pyrimidin-3-yl]phenylmethanone], for which the “Result (no. of shocks per 3 min.)” value in assay [3] is recorded as 19.1 no. of shocks per 3 min. Further, the “% of Rats Protected (against clonic seizures)” value in assay [4] was determined as 75%. Besides, the “MABP/mm Hg (no. of rats)” value in assay [2] is 122 mm Hg. Besides, the “% Inhibition” value in assay [1] is 76%.
Consider `CN1CC=C(c2cccc(C(F)(F)F)c2)n2ncc(C#N)c21` [4,5-Dihydro-4-methyl-7-[3-(trifluoromethyl)phenyl]pyrazolo[1,5-a]pyrimidine-3-carbonitrile], for which the “Result (no. of shocks per 3 min.)” value in assay [3] was 19.0 no. of shocks per 3 min. In addition, the “% Inhibition” value in assay [1] turned out to be 12%.
Regarding `CCOC(=O)c1cnn2c1NCC=C2c1ccccc1` [4,5-Dihydro-7-phenylpyrazolo[1,5-a]pyrimidine-3-carboxylic acid, ethyl ester], the “% Inhibition” value in assay [1] turned out to be 54%.
Turning to `Cc1nn2c(c1C(N)=O)NCC=C2c1cc(Cl)ccc1Cl` [7-(2,5-Dichlorophenyl)-4,5-dihydro-2-methylpyrazolo[1,5-a]pyrimidine-3-carboxamide], the “MABP/mm Hg (no. of rats)” value in assay [2] is given as 95 mm Hg.
`N#Cc1cnn2c1NCCC2c1cccc(C(F)(F)F)c1` (stereo not drawn) [4,5,6,7-Tetrahydro-7-[3-(trifluoromethyl)phenyl]pyrazolo[1,5-a]pyrimidine-3-carbonitrile]: the “MABP/mm Hg (no. of rats)” value in assay [2] came to 128 mm Hg.
`FC(F)(F)c1cccc(C2=CCNc3ccnn32)c1` [4,5-Dihydro-7-[3-(trifluoromethyl)phenyl]pyrazolo[1,5-a]pyrimidine]: the “% Inhibition” value in assay [1] is listed as 48%.
As for `NC(=O)c1cnn2c1NCC=C2c1ccccc1` [4,5-Dihydro-7-phenylpyrazolo[1,5-a]pyrimidine-3-carboxamide], the “% of Rats Protected (against clonic seizures)” value in assay [4] is 50%.
Consider `CC1=C(c2cccc(C(F)(F)F)c2)n2ncc(C#N)c2NC1` [4,5-Dihydro-6-methyl-7-[3-(trifluoromethyl)phenyl]pyrazolo[1,5-a]pyrimidine-3-carbonitrile], for which the “Mean Duration (Seconds) of immobility” value in assay [5] stood at 55.0 s.
Regarding `CCOC(=O)c1cnn2c1NCC=C2c1cccc(C(F)(F)F)c1` [4,5-Dihydro-7-[3-(trifluoromethyl)phenyl]pyrazolo[1,5-a]pyrimidine-3-carboxylic acid, ethyl ester], in assay [1], the “% Inhibition” value was determined as 90%.
Regarding `CC1=C(c2cccc(Cl)c2)n2ncc(C#N)c2NC1` [7-(3-Chlorophenyl)-4,5-dihydro-6-methylpyrazolo[1,5-a]pyrimidine-3-carbonitrile], the “Mean Duration (Seconds) of immobility” value in assay [5] amounted to 66.7 s.
For `CC1CC(c2ccc(Cl)cc2)n2ncc(C#N)c2N1` (stereo not drawn) [7-(4-Chlorophenyl)-4,5,6,7-tetrahydro-5-methylpyrazolo[1,5-a]pyrimidine-3-carbonitrile], the “Mean Duration (Seconds) of immobility” value in assay [5] was determined as 4.7 s.
Take `N#Cc1cnn2c1NCC=C2c1cccc(C(F)(F)F)c1` [4,5-Dihydro-7-[3-(trifluoromethyl)phenyl]pyrazolo[1,5-a]pyrimidine-3-carbonitrile]: in assay [1], the “% Inhibition” value was determined as 15%.
Regarding `NC(=O)c1cnn2c1NCC=C2c1cccc(F)c1` [7-(3-Fluorophenyl)-4,5-dihydropyrazolo[1,5-a]pyrimidine-3-carboxamide], the “% Inhibition” value in assay [1] is listed as 39%.
As for `CC1CC(c2cccc(Cl)c2)n2ncc(C#N)c2N1` (stereo not drawn) [7-(3-Chlorophenyl)-4,5,6,7,-tetrahydro-5-methylpyrazolo[1,5-a]pyrimidine-3-carbonitrile], in assay [5], the “Mean Duration (Seconds) of immobility” value is 75.4 s.
As to `FC(F)(F)c1cccc(C2=CCNc3c(Cl)cnn32)c1` [3-Chloro-4,5-dihydro-7-[3-(trifluoromethyl)phenyl]pyrazolo[1,5-a]pyrimidine], the “% Inhibition” value in assay [1] stood at 63%.
As to `NC(=O)c1cnn2c1NCC=C2c1cccc(C(F)(F)F)c1` [4,5-Dihydro-7-[3-(trifluoromethyl)phenyl]pyrazolo[1,5-a]pyrimidine-3-carboxamide], the “MABP/mm Hg (no. of rats)” value in assay [2] was found to be 108 mm Hg.
As to `N#Cc1cnn2c1NCC=C2c1ccc(Cl)c(Cl)c1` [7-(3,4-Dichlorophenyl)-4,5-dihydropyrazolo[1,5-a]pyrimidine-3-carbonitrile], the “% Inhibition” value in assay [1] amounted to 12%.
For the compound `CC(C)(C)C(=O)c1cnn2c1NCCC2` [2,2-Dimethyl-1-(4,5,6,7-tetrahydropyrazolo[1,5-a]pyrimidin-3-yl)-1-propanone], the “MABP/mm Hg (no. of rats)” value in assay [2] stood at 114 mm Hg. In addition, in assay [1], the “% Inhibition” value worked out at 28%.
